The values below come from patent US20150342899A1 (NOVEN PHARMACEUTICALS, INC., priority 2012, published 2015).

A short description of this data set: in vitro flux study with human cadaver skin using a Franz cell apparatus. It counts as in vitro ADME. On the procedure:
An in vitro flux study was conducted with human cadaver skin using a Franz cell apparatus to determine the flux of each drug from the matrix over a 24-hour period.

For the compound `CC(N)Cc1ccccc1` (stereo not drawn) [amphetamine, alpha-methylphenethylamine], where the note is “transdermal system from polymer matrix of Example 1, about 1.05 mg/cm^2 amphetamine and about 0.28 mg/cm^2 clonidine, 24-hour period, FIG. 1, one sample”, the “flux of drug from the matrix” value was “sufficient to achieve a therapeutic effect”.
For `Clc1cccc(Cl)c1N=C1NCCN1` [clonidine], the “pharmacokinetic (delivery) profile” value is “delivered over an extended period of time”.
